{"source": "patent US10793552B2", "about": "“Amino pyrimidine ssao inhibitors” (Eli Lilly and Company, priority 2016, dated 2020)", "type_in_all_cases": "in vivo", "key": {"[1]": {"tested_on": "C57BL/6N mice fed 3H diet", "assay": "Mouse Model of NASH and Fibrosis Induced by 3H Diet", "conditions": "mouse 3H diet; for Score (0-3) Hepatic inflammation Left / Score (0-3) Macrovesicular vaculation Left / Score (0-3) Perisinusoidal fibrosis Left: left lobe; for Score (0-3) Hepatic inflammation Left / Score (0-3) Macrovesicular vaculation Left / Score (0-3) Perisinusoidal fibrosis Left / Score (0-3) Hepatic inflammation Right / Score (0-3) Macrovesicular vaculation Right / Score (0-3) Perisinusoidal fibrosis Right: mean ± SEM; for Score (0-3) Hepatic inflammation Right / Score (0-3) Macrovesicular vaculation Right / Score (0-3) Perisinusoidal fibrosis Right: right lobe", "protocol": "Male C57BL/6N mice are fed with D09100301 diet (Research Diets, 40% fat, 2% cholesterol, 24% fructose, (the, high fat, high cholesterol and high fructose, the “3H diet”) for 150 days. Each mouse is then singly housed after 5 days for an acclimation period. Plasma alanine aminotransferase (ALT) and cytokeratin 18 (CK18) are measured. After one week of recovery, the mice are randomized into 5 groups based on their ALT values, CK18 values, and body weight. […] Blood is collected from mice treated with the compound of Example 6 for 76 days 2 hours after the last dose. Compound levels in the plasma are analyzed by mass spectroscopy. […] At the completion of the study, the animals are sacrificed and their livers excised. Two sections of the left and right lobes are fixed in neutral buffered 10% formalin. Liver tissue slides are stained with hematoxylin and eosin (H&E), Sirius red, and Masson's Trichrome to prepare slides for pathological analysis. All specimens are examined microscopically and scored as a modified Brunt score NASH Activity Score. Scores are based on the grading scheme and end-points as described in Brunt E. M. et al., “Histopathology of nonalcoholic fatty liver disease,” World J. of Gastroenterol, 2010, 16(42), 5286-5296. Group means are then calculated for each individual end-point. The following endpoints are used to characterize the fast food model of NASH in mice as modified from NASH endpoints (See Brunt, E. M. “Histopathology of nonalcoholic fatty liver disease,” Clin Liver Dis., 2009, 13, 533-544 and Brunt, E. M, et al., “Nonalcoholic steatohepatitis: A proposal for grading and staging the histological lesions”, Am J Gastroenterology, 1999, 94(9), 2467-2474."}, "[2]": {"assay": "Plasma compound levels in 3H diet mice by mass spectroscopy", "conditions": "mouse, treated 76 days, 2 hours after the last dose, all doses", "protocol": "Male C57BL/6N mice are fed with D09100301 diet (Research Diets, 40% fat, 2% cholesterol, 24% fructose, (the, high fat, high cholesterol and high fructose, the “3H diet”) for 150 days. Each mouse is then singly housed after 5 days for an acclimation period. Plasma alanine aminotransferase (ALT) and cytokeratin 18 (CK18) are measured. After one week of recovery, the mice are randomized into 5 groups based on their ALT values, CK18 values, and body weight. Animals of each group are administrated either vehicle (0.5% methylcellulose (MC)+0.25% Tween 80 in distilled water) or the compound of Example 6 (at a 0.06, 2, 6, and 20 mg/kg dose) once daily in a volume of 5 ml/kg for 11 weeks. Blood is collected from mice treated with the compound of Example 6 for 76 days 2 hours after the last dose. Compound levels in the plasma are analyzed by mass spectroscopy."}, "[3]": {"target": "SSAO (Rattus norvegicus (Rat), UniProt O08590)", "sequence (O08590 whole entry)": "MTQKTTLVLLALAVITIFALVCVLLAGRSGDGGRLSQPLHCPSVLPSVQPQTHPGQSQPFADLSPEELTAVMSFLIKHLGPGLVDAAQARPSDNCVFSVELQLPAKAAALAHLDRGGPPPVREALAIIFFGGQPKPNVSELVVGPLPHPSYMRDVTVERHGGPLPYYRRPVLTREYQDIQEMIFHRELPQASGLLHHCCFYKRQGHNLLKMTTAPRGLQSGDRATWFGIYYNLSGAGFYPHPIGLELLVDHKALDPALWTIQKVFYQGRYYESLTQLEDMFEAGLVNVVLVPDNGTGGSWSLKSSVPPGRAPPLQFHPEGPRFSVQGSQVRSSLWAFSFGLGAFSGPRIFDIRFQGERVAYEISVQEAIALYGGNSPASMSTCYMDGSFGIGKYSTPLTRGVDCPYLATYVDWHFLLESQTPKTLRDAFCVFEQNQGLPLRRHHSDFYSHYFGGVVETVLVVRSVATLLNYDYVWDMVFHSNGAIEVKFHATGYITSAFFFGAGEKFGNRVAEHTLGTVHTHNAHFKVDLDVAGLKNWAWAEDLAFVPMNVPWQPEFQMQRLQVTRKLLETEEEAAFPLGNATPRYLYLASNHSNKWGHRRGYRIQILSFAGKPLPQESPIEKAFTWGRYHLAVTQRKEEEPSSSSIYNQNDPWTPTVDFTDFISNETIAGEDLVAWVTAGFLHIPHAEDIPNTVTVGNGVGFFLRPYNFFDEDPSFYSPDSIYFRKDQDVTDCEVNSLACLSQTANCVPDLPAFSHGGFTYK", "assay": "SSAO Target Engagement in rat plasma and liver", "conditions": "for activity at 0.005 mg/kg / activity at 0.025 mg/kg / activity at 0.12 mg/kg / activity at 0.6 mg/kg / activity at 3 mg/kg / activity at 15 mg/kg: mean ± SEM", "protocol": "The SSAO activity in rat plasma and liver tissues are measured using the MAO-Glo™ assay kit from Promega (V1402). The residual SSAO activity in rats after compound treatment is estimated by measuring the total amine oxidase activity in plasma or liver lysates that are insensitive to the presence of the MAO inhibitor Clogyline and Pargyline. Rats are administered the compound of Example 2 at the doses of 15, 3, 0.6, 0.12, 0.025, 0.005 mg/kg. The control group is administered with the same volume (2 ml/kg) of the dosing vehicle (hydroxyethyl cellulose 1% w/v, 0.25% Tween 80). Plasma and liver at 2 or 24 hours post compound treatment are harvested and stored at −78° C. until analysis. Tissue lysates are prepared by homogenization in a lysis buffer (20 mM HEPES, pH 7.4, 150 mM NaCl, 1 mM EDTA, 1 mM EGTA, 1% Triton X-100 and 1× Roche Complete protease inhibitor tablet). Tissue particles are removed by centrifugation at 12,000 rpm at 4° C. for 30 minutes. 40 μl of plasma or liver lysates is incubated with Clogyline (10 μM) and Pargyline (10 μM) for 20 minutes at room temperature before the addition of the luminogenic substrate (50 μM) for 60 minutes. The product generated is quantified according to the manufacture's procedure. The fraction of activity that is insensitive to the presence of the MAO inhibitors is used as the surrogate for the residual SSAO activity. The compound of Example 2 was evaluated in the protocol essentially as described above administered at various doses."}, "[4]": {"conditions": "20 mg/kg once daily 11 weeks, p < 0.05 vs vehicle"}, "[5]": {"conditions": "liver, 24 hour, n = 6, read-out: SSAO Activity (%) Liver 24 hour"}, "[6]": {"conditions": "plasma, 2 hour, n = 6, read-out: SSAO Activity (%) Plasma 2 hour"}, "[7]": {"conditions": "plasma, 24 hour, n = 6, read-out: SSAO Activity (%) Plasma 24 hour"}}, "note": "Like-named read-outs stand apart in the source and are kept apart here.", "data": [{"smiles": "Cl.Cl.NC/C(=C\\F)COc1cnc(N2CC[C@H](O)C2)nc1", "note": "[Example 6, (3S)-1-[5-[(E)-2-(Aminomethyl)-3-fluoro-allyloxy]pyrimidin-2-yl]pyrrolidin-3-ol; Dihydrochloride]", "values": [{"measurement": "Score (0-3) Hepatic inflammation Left", "setting": "[1]; 0.6 mg/kg once daily 11 weeks", "value": "2.6 ± 0.1"}, {"measurement": "Score (0-3) Macrovesicular vaculation Left", "setting": "[1]; 0.6 mg/kg once daily 11 weeks", "value": "2.5 ± 0.1"}, {"measurement": "Score (0-3) Perisinusoidal fibrosis Left", "setting": "[1]; 0.6 mg/kg once daily 11 weeks", "value": "2.4 ± 0.2"}, {"measurement": "Score (0-3) Hepatic inflammation Right", "setting": "[1]; 0.6 mg/kg once daily 11 weeks", "value": "2.5 ± 0.1"}, {"measurement": "Score (0-3) Macrovesicular vaculation Right", "setting": "[1]; 0.6 mg/kg once daily 11 weeks", "value": "2.6 ± 0.1"}, {"measurement": "Score (0-3) Perisinusoidal fibrosis Right", "setting": "[1]; 0.6 mg/kg once daily 11 weeks", "value": "1.9 ± 0.2"}, {"measurement": "Score (0-3) Hepatic inflammation Left", "setting": "[1]; 2 mg/kg once daily 11 weeks", "value": "2.5 ± 0.1"}, {"measurement": "Score (0-3) Macrovesicular vaculation Left", "setting": "[1]; 2 mg/kg once daily 11 weeks", "value": "2.5 ± 0.1"}, {"measurement": "Score (0-3) Perisinusoidal fibrosis Left", "setting": "[1]; 2 mg/kg once daily 11 weeks", "value": "2.5 ± 0.2"}, {"measurement": "Score (0-3) Hepatic inflammation Right", "setting": "[1]; 2 mg/kg once daily 11 weeks", "value": "2.6 ± 0.1"}, {"measurement": "Score (0-3) Macrovesicular vaculation Right", "setting": "[1]; 2 mg/kg once daily 11 weeks", "value": "2.7 ± 0.1"}, {"measurement": "Score (0-3) Perisinusoidal fibrosis Right", "setting": "[1]; 2 mg/kg once daily 11 weeks", "value": "1.8 ± 0.2"}, {"measurement": "Score (0-3) Hepatic inflammation Left", "setting": "[1]; 6 mg/kg once daily 11 weeks", "value": "2.5 ± 0.2"}, {"measurement": "Score (0-3) Macrovesicular vaculation Left", "setting": "[1]; 6 mg/kg once daily 11 weeks", "value": "2.9 ± 0.1"}, {"measurement": "Score (0-3) Perisinusoidal fibrosis Left", "setting": "[1]; 6 mg/kg once daily 11 weeks", "value": "2.6 ± 0.2"}, {"measurement": "Score (0-3) Hepatic inflammation Right", "setting": "[1]; 6 mg/kg once daily 11 weeks", "value": "2.6 ± 0.2"}, {"measurement": "Score (0-3) Macrovesicular vaculation Right", "setting": "[1]; 6 mg/kg once daily 11 weeks", "value": "2.7 ± 0.1"}, {"measurement": "Score (0-3) Perisinusoidal fibrosis Right", "setting": "[1]; 6 mg/kg once daily 11 weeks", "value": "2.1 ± 0.3"}, {"measurement": "hepatic inflammation (in words)", "setting": "[1]; 20 mg/kg", "value": "significant decrease"}, {"measurement": "macrovesicular vaculation (in words)", "setting": "[1]; 20 mg/kg", "value": "significant decrease"}, {"measurement": "perisinusoidal fibrosis (in words)", "setting": "[1]; 20 mg/kg", "value": "significant decrease"}, {"measurement": "Score (0-3) Macrovesicular vaculation Left", "setting": "[1]; 20 mg/kg once daily 11 weeks", "value": "2.4 ± 0.2"}, {"measurement": "Score (0-3) Perisinusoidal fibrosis Left", "setting": "[1]; 20 mg/kg once daily 11 weeks", "value": "1.9 ± 0.2"}, {"measurement": "Score (0-3) Hepatic inflammation Left", "setting": "[1]; 20 mg/kg once daily 11 weeks, p < 0.01 vs vehicle", "value": "2.1 ± 0.1"}, {"measurement": "Score (0-3) Hepatic inflammation Right", "setting": "[1]; [4]", "value": "2.1 ± 0.1"}, {"measurement": "Score (0-3) Macrovesicular vaculation Right", "setting": "[1]; [4]", "value": "2.3 ± 0.1"}, {"measurement": "Score (0-3) Perisinusoidal fibrosis Right", "setting": "[1]; [4]", "value": "1.5 ± 0.2"}, {"measurement": "triglyceride levels in blood (in words)", "setting": "[1]; 6 and 20 mg/kg", "value": "decreased triglyceride levels"}, {"measurement": "ALT (in words)", "setting": "[1]; all treated groups", "value": "significant decrease"}, {"measurement": "plasma compound levels (in words)", "setting": "[2]", "value": "dose-dependent increase"}]}, {"smiles": "Cl.Cl.NC/C(=C\\F)COc1cnc(N2CCC(O)CC2)nc1", "note": "[Example 2, 1-[5-[(E)-2-(Aminomethyl)-3-fluoro-allyloxy]pyrimidin-2-yl]piperidin-4-ol dihydrochloride]", "values": [{"measurement": "activity at 0.005 mg/kg", "setting": "[3]; [5]", "value": "75 ± 18", "unit": "%"}, {"measurement": "activity at 0.005 mg/kg", "setting": "[3]; [6]", "value": "31 ± 3", "unit": "%"}, {"measurement": "activity at 0.005 mg/kg", "setting": "[3]; [7]", "value": "70 ± 7", "unit": "%"}, {"measurement": "activity at 0.025 mg/kg", "setting": "[3]; [5]", "value": "68 ± 14", "unit": "%"}, {"measurement": "activity at 0.025 mg/kg", "setting": "[3]; [6]", "value": "21 ± 1", "unit": "%"}, {"measurement": "activity at 0.025 mg/kg", "setting": "[3]; [7]", "value": "55 ± 9", "unit": "%"}, {"measurement": "activity at 0.12 mg/kg", "setting": "[3]; [5]", "value": "45 ± 8", "unit": "%"}, {"measurement": "activity at 0.12 mg/kg", "setting": "[3]; [6]", "value": "7 ± 1", "unit": "%"}, {"measurement": "activity at 0.12 mg/kg", "setting": "[3]; [7]", "value": "35 ± 4", "unit": "%"}, {"measurement": "activity at 0.6 mg/kg", "setting": "[3]; [5]", "value": "16.2 ± 2.9", "unit": "%"}, {"measurement": "activity at 0.6 mg/kg", "setting": "[3]; [6]", "value": "4.3 ± 0.8", "unit": "%"}, {"measurement": "activity at 0.6 mg/kg", "setting": "[3]; [7]", "value": "16.3 ± 2.6", "unit": "%"}, {"measurement": "activity at 3 mg/kg", "setting": "[3]; [5]", "value": "7.1 ± 1.7", "unit": "%"}, {"measurement": "activity at 3 mg/kg", "setting": "[3]; [6]", "value": "3.6 ± 1", "unit": "%"}, {"measurement": "activity at 3 mg/kg", "setting": "[3]; [7]", "value": "8.8 ± 1.3", "unit": "%"}, {"measurement": "activity at 15 mg/kg", "setting": "[3]; [5]", "value": "9.6 ± 2.6", "unit": "%"}, {"measurement": "activity at 15 mg/kg", "setting": "[3]; [6]", "value": "-0.6 ± 0.3", "unit": "%"}, {"measurement": "activity at 15 mg/kg", "setting": "[3]; [7]", "value": "6.6 ± 1.8", "unit": "%"}, {"measurement": "inhibition of SSAO activity in rat plasma and liver", "setting": "[3]; doses 0.005 to 15 mg/kg", "value": "dose-dependently inhibits SSAO activity"}]}]}
